From PubChem BioAssay (NCI)
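Protocol summary: plate cells (96-well), add compound at 5 concentrations, incubate 48 h, interpolate endpoints linearly. At the TGI there is no net growth.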

What was measured:
Assay in all cases: NCI-60 cell line screen, 48 h
COLO 205 colon = tested on: COLO 205 colon
DU-145 prostate = tested on: DU-145 prostate
HCT-15 colon = tested on: HCT-15 colon
HOP-62 NSCLC = tested on: HOP-62 NSCLC
HS 578T breast = tested on: HS 578T breast
IGROV1 ovarian = tested on: IGROV1 ovarian
MDA-MB-231 breast = tested on: MDA-MB-231 breast
MDA-MB-435 = tested on: MDA-MB-435
MDA-N = tested on: MDA-N
NCI-H23 lung = tested on: NCI-H23 lung
OVCAR-3 ovarian = tested on: OVCAR-3 ovarian
OVCAR-4 ovarian = tested on: OVCAR-4 ovarian
OVCAR-5 ovarian = tested on: OVCAR-5 ovarian
SF-268 CNS = tested on: SF-268 CNS
SF-539 CNS = tested on: SF-539 CNS
SK-MEL-2 melanoma = tested on: SK-MEL-2 melanoma
SR leukemia = tested on: SR leukemia
T-47D breast = tested on: T-47D breast
U251 CNS = tested on: U251 CNS
UACC-62 melanoma = tested on: UACC-62 melanoma

SMILES	TGI (COLO 205 colon)	TGI (DU-145 prostate)	TGI (HCT-15 colon)	TGI (HOP-62 NSCLC)	TGI (HS 578T breast)	TGI (IGROV1 ovarian)	TGI (MDA-MB-231 breast)	TGI (MDA-MB-435)	TGI (MDA-N)	TGI (NCI-H23 lung)	TGI (OVCAR-3 ovarian)	TGI (OVCAR-4 ovarian)	TGI (OVCAR-5 ovarian)	TGI (SF-268 CNS)	TGI (SF-539 CNS)	TGI (SK-MEL-2 melanoma)	TGI (SR leukemia)	TGI (T-47D breast)	TGI (U251 CNS)	TGI (UACC-62 melanoma)
Cn1cc(-c2cnc(-c3cn(C)c4ccccc34)cn2)c2ccccc21	15.6 µM	> 58.5 µM	47.4 µM	> 100 µM	33.5 µM	> 50.5 µM	> 96.6 µM	7.38 µM	3.54 µM	37.6 µM	> 42.4 µM	> 100 µM	> 100 µM	> 87.5 µM	10.4 µM	> 71.2 µM	> 100 µM	> 100 µM	40.2 µM	31.3 µM
COC(=O)Nc1nc2ccc(S(=O)(=O)n3nnc4ccccc43)cc2[nH]1	> 100 µM	> 100 µM	> 100 µM	51.2 µM	> 100 µM	> 100 µM	> 100 µM	> 100 µM	> 100 µM	> 100 µM	> 100 µM	> 100 µM	> 100 µM	> 100 µM	24.4 µM	> 100 µM	> 100 µM	> 100 µM	> 100 µM	> 100 µM
O=C(NNc1ccnc2cc(Cl)ccc12)/C(=C\c1ccccc1Cl)NC(=O)c1ccccc1	81.8 µM	> 100 µM	> 100 µM	48.6 µM	> 100 µM	> 100 µM	> 100 µM	> 100 µM	> 100 µM	> 100 µM	38.2 µM	> 100 µM	> 100 µM	85.1 µM	72.7 µM	46.1 µM	> 100 µM	> 100 µM	34 µM	70.9 µM
N/C(=N\N=C\c1c[nH]c2cc(C(F)(F)F)ccc2c1=O)NO	> 10 µM	> 10 µM	> 10 µM	> 10 µM	> 10 µM	> 10 µM	> 10 µM	> 10 µM	> 10 µM	> 10 µM	> 10 µM	> 10 µM	> 10 µM	> 10 µM	> 10 µM	> 10 µM	> 10 µM	> 10 µM	> 10 µM	> 10 µM
CN(C)c1nc2n(CCO)c(-c3ccccc3)c(-c3ccccc3)nc-2c(=O)n1	> 100 µM	> 100 µM	> 100 µM	> 100 µM	> 100 µM	> 100 µM	> 100 µM	> 100 µM	> 100 µM	> 100 µM	> 100 µM	> 100 µM	> 100 µM	> 100 µM	> 100 µM	> 100 µM	> 100 µM	> 100 µM	> 100 µM	> 100 µM
C=CCn1c(C23CC4CC(CC(C4)C2)C3)n[nH]c1=S	> 100 µM	> 100 µM	> 100 µM	> 100 µM	> 100 µM	> 100 µM	> 100 µM	> 100 µM	> 100 µM	> 100 µM	> 100 µM	> 100 µM	> 100 µM	> 100 µM	> 100 µM	> 100 µM	29.3 µM	> 100 µM	> 100 µM	> 100 µM
Nc1c(-c2nc3ccccc3o2)sc(=S)n1-c1ccc(Cl)cc1	> 100 µM	32.9 µM	> 100 µM	15.8 µM	46.4 µM	46.3 µM	64.5 µM	> 100 µM	> 100 µM	37.8 µM	38.1 µM	31.6 µM	> 100 µM	33.9 µM	23.9 µM	47.8 µM	> 100 µM	33.1 µM	37.5 µM	27.8 µM
CCOC(=O)[C@H](O)[C@@H](O)C(=O)NCc1ccc(C(=O)c2ccccc2)cc1	> 100 µM	> 100 µM	> 100 µM	> 100 µM	> 100 µM	> 100 µM	> 100 µM	> 100 µM	> 100 µM	> 100 µM	> 100 µM	> 100 µM	> 100 µM	> 100 µM	> 100 µM	> 100 µM	> 100 µM	> 100 µM	> 100 µM	> 100 µM
Cc1ccc(S(=O)(=O)/N=C(\N)N(C)N=O)cc1	> 100 µM	> 100 µM	> 100 µM	> 100 µM	> 100 µM	> 100 µM	> 100 µM	> 100 µM	> 100 µM	> 100 µM	> 100 µM	> 100 µM	> 100 µM	> 100 µM	> 100 µM	> 100 µM	> 100 µM	> 100 µM	> 100 µM	> 100 µM
N#Cc1nc(COCc2ccccc2)oc1N	> 100 µM	> 100 µM	> 100 µM	> 100 µM	> 100 µM	> 100 µM	> 100 µM	> 100 µM	> 100 µM	> 100 µM	> 100 µM	> 100 µM	> 100 µM	> 100 µM	> 100 µM	> 100 µM	> 100 µM	> 100 µM	> 100 µM	> 100 µM
CSC1=NC(C(N)=O)C(N)N1C (stereo not given)	> 100 µM	> 100 µM	> 100 µM	> 100 µM	> 100 µM	> 100 µM	> 100 µM	> 100 µM	> 100 µM	> 100 µM	> 100 µM	> 100 µM	> 100 µM	> 100 µM	> 100 µM	> 100 µM	> 100 µM	> 100 µM	> 100 µM	> 100 µM
COc1cc(/C=C/C(=O)OCCc2ccccc2)ccc1O	34.8 µM	30.4 µM	44.6 µM	33.4 µM	50 µM	28 µM	30.6 µM	27.3 µM	34.4 µM	36.5 µM	36.9 µM	26.1 µM	32.8 µM	47.4 µM	36.7 µM	42.7 µM	83.5 µM	33.2 µM	29.5 µM	26 µM
N=c1nc2n(cc1F)[C@@H]1O[C@H](CO)[C@@H](O)[C@@H]1O2	> 96.9 µM	> 100 µM	> 100 µM	> 100 µM	> 100 µM	> 92.7 µM	> 100 µM	> 100 µM	> 100 µM	> 55.8 µM	> 100 µM	> 100 µM	> 100 µM	> 100 µM	> 77.2 µM	> 100 µM	> 73.7 µM	65.2 µM	> 91.9 µM	> 100 µM
Cc1nn(C(=O)c2ccc(Cl)cc2)c2c1C(c1cccc([N+](=O)[O-])c1)SC(N)=N2 (stereo not given)	> 10 µM	> 10 µM	7.51 µM	> 10 µM	> 10 µM	> 10 µM	> 10 µM	> 10 µM	> 10 µM	> 10 µM	> 10 µM	> 10 µM	> 10 µM	> 10 µM	> 10 µM	> 10 µM	> 10 µM	> 10 µM	> 10 µM	> 10 µM
O=C(CC(C(=O)c1ccco1)c1cccs1)c1cccs1 (stereo not given)	> 100 µM	> 100 µM	> 100 µM	> 100 µM	> 100 µM	> 100 µM	> 100 µM	> 100 µM	> 100 µM	> 100 µM	> 100 µM	> 100 µM	> 100 µM	> 100 µM	> 100 µM	> 100 µM	> 100 µM	> 100 µM	> 100 µM	> 100 µM
CSCCC(N)P(C)(=O)O (stereo not given)	> 100 µM	> 100 µM	> 100 µM	> 100 µM	> 100 µM	> 100 µM	> 100 µM	> 100 µM	> 100 µM	> 100 µM	> 100 µM	> 100 µM	> 100 µM	> 100 µM	> 100 µM	> 100 µM	> 100 µM	> 100 µM	> 100 µM	> 100 µM
O=c1oc2nc(-c3ccccc3)cc(C(F)(F)F)c2n1Cc1ccccc1	> 100 µM	> 100 µM	> 100 µM	> 100 µM	> 75.3 µM	> 43.5 µM	> 100 µM	3.13 µM	2.68 µM	> 59.6 µM	> 100 µM	> 100 µM	> 100 µM	> 100 µM	> 100 µM	> 100 µM	> 100 µM	> 45 µM	> 100 µM	> 100 µM
Fc1ccc(OCc2nc3cc(C(F)(F)F)ccc3nc2-c2ccccc2)cc1	> 100 µM	> 100 µM	> 100 µM	> 100 µM	> 100 µM	> 100 µM	> 100 µM	> 100 µM	> 100 µM	> 100 µM	> 100 µM	> 100 µM	> 100 µM	> 100 µM	> 100 µM	> 100 µM	> 100 µM	> 100 µM	> 100 µM	> 100 µM
CCCCCC(=O)Nc1nc[nH]c1C(N)=O	> 100 µM	> 100 µM	> 100 µM	> 100 µM	> 100 µM	> 100 µM	> 100 µM	> 100 µM	> 100 µM	> 100 µM	> 100 µM	> 100 µM	> 100 µM	> 100 µM	> 100 µM	> 100 µM	> 100 µM	> 100 µM	> 100 µM	> 100 µM
ClCCN1CCOC1=Nc1ccc2c(c1)CCCC2	25 µM	48.4 µM	48.6 µM	22 µM	72 µM	24.8 µM	31.7 µM	29.2 µM	28.3 µM	26.7 µM	29.3 µM	41.4 µM	32.4 µM	47.7 µM	17.9 µM	38.1 µM	61.1 µM	41.1 µM	28.6 µM	27.9 µM
CCOC(=O)C(NCc1ccc2c(c1)OCO2)(NC(=O)c1ccccc1)C(F)(F)F (stereo not given)	> 100 µM	> 100 µM	> 100 µM	> 100 µM	> 100 µM	> 100 µM	> 100 µM	> 100 µM	> 100 µM	> 100 µM	> 100 µM	> 100 µM	> 100 µM	> 100 µM	> 100 µM	> 100 µM	> 100 µM	> 100 µM	> 100 µM	> 100 µM
